Experimental data published in patent US6472348B1, “Pyridone derivatives and herbicides” (Kumiai Chemical Industry Co., Ltd., priority 1996, dated 2002).
Each block holds one molecule with its values, some of them ahead of it.

Legend:
[1] = tested on: barnyardgrass (Ec); assay: Test Example 1: herbicidal effects by paddy field soil treatment; format: in vivo; conditions: 100 g of the active ingredient per 10 ares, 21st day after the application, index 0-5 of Table 47;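 also: grade of growth control; 5 = at least 90%; 4 = 70 to 90%; 3 = 50 to 70%; 2 = 30 to 50%; 1 = 10 to 30%; 0 = under 10%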
Method in brief: (§1)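 Flooded paddy-soil pots (3 cm water) sown after puddling/leveling; treatment 100 g a.i./10 ares; greenhouse culture; herbicidal effect rated visually on a scoring scale at 21 d post-application.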

[2] = tested on: bulrush (Sc); assay: as above; format: in vivo; conditions: 100 g of the active ingredient per 10 ares, 21st day after the application, index 0-5 of Table 47;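 also: grade of growth control; 5 = at least 90%; 4 = 70 to 90%; 3 = 50 to 70%; 2 = 30 to 50%; 1 = 10 to 30%; 0 = under 10%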
Method in brief: as §1

[3] = tested on: monochoria (Mo); assay: as above; format: in vivo; conditions: 100 g of the active ingredient per 10 ares, 21st day after the application, index 0-5 of Table 47;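 also: grade of growth control; 5 = at least 90%; 4 = 70 to 90%; 3 = 50 to 70%; 2 = 30 to 50%; 1 = 10 to 30%; 0 = under 10%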
Method in brief: as §1

[4] = tested on: Digitaria ciliaris (Di); assay: Test Example 2: herbicidal effects by upland field soil treatment; format: in vivo; conditions: 100 g of the active ingredient per 10 ares;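 also: grade of growth control; 5 = at least 90%; 4 = 70 to 90%; 3 = 50 to 70%; 2 = 30 to 50%; 1 = 10 to 30%; 0 = under 10%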
Source text: (§2) (Test on Herbicidal Effects by Upland Field Soil Treatment)

[5] = tested on: barnyardgrass (Ec); assay: as above; format: in vivo; conditions: 100 g of the active ingredient per 10 ares
Source text: as §2

[6] = tested on: common lambsquarters (Ch); assay: as above; format: in vivo; conditions: 100 g of the active ingredient per 10 ares
Source text: as §2

[7] = tested on: pale smartweed (Po); assay: as above; format: in vivo; conditions: 100 g of the active ingredient per 10 ares
Source text: as §2

[8] = tested on: rice flatsedge (Ci); assay: as above; format: in vivo; conditions: 100 g of the active ingredient per 10 ares
Source text: as §2

[9] = tested on: slender amaranth (Am); assay: as above; format: in vivo; conditions: 100 g of the active ingredient per 10 ares
Source text: as §2

[10] = tested on: Diaitaria ciliaris (Di); assay: Test Example 3: herbicidal effects by upland field foliage treatment; format: in vivo; set-up: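 grade of growth control; 5 = at least 90%; 4 = 70 to 90%; 3 = 50 to 70%; 2 = 30 to 50%; 1 = 10 to 30%; 0 = under 10%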
Method in brief: (§3)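 Scores reflect herbicidal effect graded by standards on the 14th day after foliage treatment of weeds grown 2 weeks in a greenhouse.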

[11] = tested on: barnyardgrass (Ec); assay: as above; format: in vivo; set-up: scale not given here
Method in brief: as §3

[12] = tested on: common lambsquarters (Ch); assay: as above; format: in vivo; set-up: scale not given here
Method in brief: as §3

[13] = tested on: pale smartweed (Po); assay: as above; format: in vivo; set-up: scale not given here
Method in brief: as §3

[14] = tested on: rice flatsedge (Ci); assay: as above; format: in vivo; set-up: scale not given here
Method in brief: as §3

[15] = tested on: slender amaranth (Am); assay: as above; format: in vivo; set-up: scale not given here
Method in brief: as §3

[16] = tested on: cotton (Go); assay: Test Example 4: crop plant selectivity by upland field soil treatment (cotton), phytotoxicity; format: in vivo; set-up: scale not given here; conditions: dose 6.3 g ai/10 a, evaluated 21st day after application
Method in brief: (§4)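 Weeds and cotton, sown in sand and topped with soil, received a soil-applied treatment. Evaluation after three weeks in a greenhouse followed a standard rating scale.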

[17] = tested on: China jute (Ab); assay: Test Example 4: crop plant selectivity by upland field soil treatment (cotton), herbicidal effects; format: in vivo; set-up: scale not given here; conditions: dose 6.3 g ai/10 a, evaluated 21st day after application
Method in brief: as §4

[18] = tested on: common lambsquarters (Ch); assay: as above; format: in vivo; set-up: scale not given here; conditions: dose 6.3 g ai/10 a, evaluated 21st day after application
Method in brief: as §4

[19] = tested on: green foxtail (Se); assay: as above; format: in vivo; set-up: scale not given here; conditions: dose 6.3 g ai/10 a, evaluated 21st day after application
Method in brief: as §4

[20] = tested on: pale smartweed (Po); assay: as above; format: in vivo; set-up: scale not given here; conditions: dose 6.3 g ai/10 a, evaluated 21st day after application
Method in brief: as §4

[21] = tested on: slender amaranth (Am); assay: as above; format: in vivo; set-up: scale not given here; conditions: dose 6.3 g ai/10 a, evaluated 21st day after application
Method in brief: as §4

[22] = tested on: corn (Ze); assay: Test Example 7: crop plant selectivity by upland field soil treatment (corn), phytotoxicity; format: in vivo; set-up: scale not given here; conditions: dose 6.3 g ai/10a, 21st day after application
Method in brief: (§5)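 Greenhouse pot test: scores for herbicidal effect and corn phytotoxicity were given 21 days after soil treatment, against set rating standards. Crop and weed species (foxtail, smartweed, amaranth, lambsquarters, China jute) were sown together in sand and covered with soil beforehand.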

[23] = tested on: China jute (Ab); assay: Test Example 7: crop plant selectivity by upland field soil treatment (corn), herbicidal effects; format: in vivo; set-up: scale not given here; conditions: dose 6.3 g ai/10a, 21st day after application
Method in brief: as §5

[24] = tested on: common lambsquarters (Ch); assay: as above; format: in vivo; set-up: scale not given here; conditions: dose 6.3 g ai/10a, 21st day after application
Method in brief: as §5

[25] = tested on: green foxtail (Se); assay: as above; format: in vivo; set-up: scale not given here; conditions: dose 6.3 g ai/10a, 21st day after application
Method in brief: as §5

[26] = tested on: pale smartweed (Po); assay: as above; format: in vivo; set-up: scale not given here; conditions: dose 6.3 g ai/10a, 21st day after application
Method in brief: as §5

[27] = tested on: slender amaranth (Am); assay: as above; format: in vivo; set-up: scale not given here; conditions: dose 6.3 g ai/10a, 21st day after application
Method in brief: as §5

[28] = tested on: wheat (Tr); assay: Test Example 9: crop plant selectivity by upland field foliage treatment (wheat), phytotoxicity; conditions: dose 1.6 g ai/10a, 14th day after treatment
Method in brief: (§6)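 Read-out: weed control and wheat injury, rated by a defined scoring standard 14 days after foliar application.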

[29] = tested on: China jute (Ab); assay: Test Example 9: crop plant selectivity by upland field foliage treatment (wheat), herbicidal effects; format: in vivo; set-up: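 grade of growth control; 5 = at least 90%; 4 = 70 to 90%; 3 = 50 to 70%; 2 = 30 to 50%; 1 = 10 to 30%; 0 = under 10%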; conditions: dose 1.6 g ai/10a, 14th day after treatment
Method in brief: as §6

[30] = tested on: common lambsquarters (Ch); assay: as above; format: in vivo; set-up: scale not given here; conditions: dose 1.6 g ai/10a, 14th day after treatment
Method in brief: as §6

[31] = tested on: pale smartweed (Po); assay: as above; format: in vivo; set-up: scale not given here; conditions: dose 1.6 g ai/10a, 14th day after treatment
Method in brief: as §6

[32] = tested on: slender amaranth (Am); assay: as above; format: in vivo; set-up: scale not given here; conditions: dose 1.6 g ai/10a, 14th day after treatment
Method in brief: as §6

[33] = tested on: corn (Ze); assay: Test Example 11: crop plant selectivity by upland field foliage treatment (corn), phytotoxicity; conditions: upland field foliage treatment, dose 1.6 g ai/10a, 14th day after treatment
Method in brief: (§7)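 Corn and the weed species were sown together in sand-filled pots and grown in a greenhouse for 2 weeks before foliar treatment. Herbicidal effect was scored on day 14 after treatment against a graded standard scale, with corn phytotoxicity scored alongside.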

[34] = tested on: China jute (Ab); assay: Test Example 11: crop plant selectivity by upland field foliage treatment (corn), herbicidal effects; format: in vivo; set-up: scale not given here; conditions: upland field foliage treatment (corn test), dose 1.6 g ai/10a, 14th day after treatment
Method in brief: as §7

[35] = tested on: common lambsquarters (Ch); assay: as above; format: in vivo; set-up: scale not given here; conditions: upland field foliage treatment (corn test), dose 1.6 g ai/10a, 14th day after treatment
Method in brief: as §7

[36] = tested on: pale smartweed (Po); assay: as above; format: in vivo; set-up: scale not given here; conditions: upland field foliage treatment (corn test), dose 1.6 g ai/10a, 14th day after treatment
Method in brief: as §7

[37] = tested on: slender amaranth (Am); assay: as above; format: in vivo; set-up: scale not given here; conditions: upland field foliage treatment (corn test), dose 1.6 g ai/10a, 14th day after treatment
Method in brief: as §7

[38] = 21st day after the application, index 0-5 of Table 47
[39] = 100 g of the active ingredient per 10 ares, evaluated on the 14th day after treatment
[40] = evaluated on the 21st day after application
[41] = 100 g active ingredient per 10 ares, evaluated 14th day after treatment

Compound: Cn1c(C(F)(F)F)ccc(-c2cc(Oc3ncccn3)c(Cl)cc2Cl)c1=O [1-41]
Herbicidal effects Ec [1]: 5
Herbicidal effects Sc [2]: 5
Herbicidal effects Mo [3]: 5
Herbicidal effects Di [4, 38]: 5
Herbicidal effects Ec [5, 38]: 5
Herbicidal effects Ch [6, 38]: 5
Herbicidal effects Po [7, 38]: 5
Herbicidal effects Ci [8, 38]: 5
Herbicidal effects Am [9, 38]: 5
Herbicidal effects Di [10, 39]: 5
Herbicidal effects Ec [11, 39]: 5
Herbicidal effects Ch [12, 39]: 5
Herbicidal effects Po [13, 39]: 5
Herbicidal effects Ci [14, 39]: 5
Herbicidal effects Am [15, 39]: 5
Phytotoxicity Go [16]: 1
Herbicidal effects Ab [17]: 5
Herbicidal effects Ch [18]: 5
Herbicidal effects Se [19]: 5
Herbicidal effects Po [20]: 5
Herbicidal effects Am [21]: 5
Phytotoxicity Ze [22]: 1
Herbicidal effects Ab [23]: 5
Herbicidal effects Ch [24]: 5
Herbicidal effects Se [25]: 5
Herbicidal effects Po [26]: 5
Herbicidal effects Am [27]: 5
Phytotoxicity Tr [28]: 2
Herbicidal effects Ab [29]: 5
Herbicidal effects Ch [30]: 5
Herbicidal effects Po [31]: 5
Herbicidal effects Am [32]: 5
Phytotoxicity Ze [33]: 2
Herbicidal effects Ab [34]: 5
Herbicidal effects Ch [35]: 5
Herbicidal effects Po [36]: 5
Herbicidal effects Am [37]: 5

Compound: CC(C)C(=O)c1cc(-c2ccc(C(F)(F)F)n(C)c2=O)c(F)cc1Cl [Compound 1-196]
Herbicidal effects Ec [1]: 5
Herbicidal effects Sc [2]: 5
Herbicidal effects Mo [3]: 5
Herbicidal effects Di [4, 40]: 5
Herbicidal effects Ec [5, 40]: 5
Herbicidal effects Ch [6, 40]: 5
Herbicidal effects Po [7, 40]: 5
Herbicidal effects Ci [8, 40]: 5
Herbicidal effects Am [9, 40]: 5
Herbicidal effects Di [10, 41]: 5
Herbicidal effects Ec [11, 41]: 5
Herbicidal effects Ch [12, 41]: 5
Herbicidal effects Po [13, 41]: 5
Herbicidal effects Ci [14, 41]: 5
Herbicidal effects Am [15, 41]: 5
Phytotoxicity Go [16]: 0
Herbicidal effects Ab [17]: 5
Herbicidal effects Ch [18]: 5
Herbicidal effects Se [19]: 5
Herbicidal effects Po [20]: 5
Herbicidal effects Am [21]: 5
Phytotoxicity Ze [22]: 1
Herbicidal effects Ab [23]: 5
Herbicidal effects Ch [24]: 5
Herbicidal effects Se [25]: 5
Herbicidal effects Po [26]: 5
Herbicidal effects Am [27]: 5
Phytotoxicity Tr [28]: 2
Herbicidal effects Ab [29]: 5
Herbicidal effects Ch [30]: 5
Herbicidal effects Po [31]: 5
Herbicidal effects Am [32]: 5
Phytotoxicity Ze [33]: 2
Herbicidal effects Ab [34]: 5
Herbicidal effects Ch [35]: 5
Herbicidal effects Po [36]: 5
Herbicidal effects Am [37]: 5

Compound: Cc1ccc(-c2ccc(Cl)cc2Cl)c(=O)n1C(F)F [Compound No. 1-8, 3-(2,4-dichlorophenyl)-1-difluoromethyl-6-methyl-2(1H)-pyridone]
melting point: 83 to 85 °C

Compound: Cn1c(C(F)(F)F)ccc(-c2cc(S)c(Cl)cc2F)c1=O [Compound No. 1-42, 3-(4-chloro-2-fluoro-5-mercaptophenyl)-1-methyl-6-trifluoromethyl-2(1H)-pyridone]
melting point: 141 to 142 °C

Compound: Cn1c(C(F)(F)F)ccc(-c2cc(N)c(Cl)cc2F)c1=O [Compound No. 1-59, 3-(5-amino-4-chloro-2-fluorophenyl)-1-methyl-6-trifluoromethyl-2(1H)-pyridone]
melting point: 155 to 157 °C

Compound: Cc1cc(-c2cc(O)c(Cl)cc2F)c(=O)n(C)c1C(F)(F)F [Compound No. 1-79, 3-(4-chloro-2-fluoro-5-hydroxyphenyl)-1,5-dimethyl-6-trifluoromethyl-2(1H)-pyridone]
melting point: 207 to 208 °C

Compound: Cn1c(C(F)(F)F)ccc(-c2cc([N+](=O)[O-])c(F)cc2F)c1=O [Compound No. 1-100, 3-(2,4-difluoro-5-nitrophenyl)-1-methyl-6-trifluoromethyl-2(1H)-pyridone]
melting point: 115 to 118 °C

Compound: CCC(c1cc2c(-c3ccc(C(F)(F)F)n(C)c3=O)c(F)cc(Cl)c2o1)[S+](C)[O-] (stereo not drawn) [Compound No. 4-57, 3-[7-chloro-5-fluoro-2-(1-methylsulfinylpropyl)benzofuran-4-yl]-1-methyl-6-trifluoromethyl-2-(1H)-pyridone]
melting point: 125 to 127 °C

Compound: Cn1cc(-c2ccc(Cl)cc2Cl)c(=O)cc1C(F)(F)F [Compound No. 6-3, 5-(2,4-dichlorophenyl)-1-methyl-2-trifluoromethyl-4(1H)-pyridone]
melting point: 205 to 206 °C

Results, then the molecule that gave them:

melting point: 225 to 227 °C
Compound: Cn1c(C(F)(F)F)ccc(-c2c(Cl)cc(Cl)c3oc(C(Br)(Br)Br)cc23)c1=O [4-40, 3-(5,7-dichloro-2-tribromomethylbenzofuran-4-yl)-1-methyl-6-trifluoromethyl-2-(1H)-pyridone]

melting point: 91 to 92 °C
Compound: CC(=O)Sc1cc(-c2ccc(C(F)(F)F)n(C)c2=O)c(F)cc1Cl [Compound No. 1-85, 3-(5-acetylthio-4-chloro-2-fluorophenyl)-1-methyl-6-trifluoromethyl-2(1H)-pyridone]

melting point: 263 to 265 °C
Compound: Cn1c(C(F)(F)F)ccc(-c2cc3[nH]c(=O)oc3cc2Cl)c1=O [Compound No. 3-20, 3-(6-chlorobenzoxazolin-2-on-5-yl)-1-methyl-6-trifluoromethyl-2(1H)-pyridone]

melting point: 169 to 171 °C
Compound: CSCc1cc2c(-c3ccc(C(F)(F)F)n(C)c3=O)c(F)cc(Cl)c2o1 [Compound No. 4-44, 3-(7-chloro-5-fluoro-2-methylthiomethylbenzofuran-4-yl)-1-methyl-6-trifluoromethyl-2-(1H)-pyridone]

melting point: 146 to 148 °C
Compound: CCC(c1cc2c(-c3ccc(C(F)(F)F)n(C)c3=O)c(F)cc(Cl)c2o1)S(C)(=O)=O (stereo not drawn) [Compound No. 4-58, 3-[7-chloro-5-fluoro-2-(1-methylsulfonylpropyl)benzofuran-4-yl]-1-methyl-6-trifluoromethyl-2-(1H)-pyridone]

melting point: 170 to 172 °C
Compound: CCOC(=O)c1c(C(F)(F)F)n(C)cc(-c2cc(OC(C)C)c(Cl)cc2F)c1=O [Compound No. 6-42, 5-(4-chloro-2-fluoro-5-isopropoxyphenyl)-3-ethoxycarbonyl-1-methyl-2-trifluoromethyl-4(1H)-pyridone]
